What was measured:
[1] = system: Heart; assay: Biodistribution in mouse S180 cells xenografted Kunming mouse heart at 10 to 20 uCi, iv after 30 mins by gamma counting; assay type: ADME, organism-based, CCRF S-180; conditions: in vivo, 0.5 h
[2] = system: Lung; assay: Biodistribution in mouse S180 cells xenografted Kunming mouse lung at 10 to 20 uCi, iv after 5 mins by gamma counting; assay type: ADME, organism-based, CCRF S-180; conditions: in vivo
[3] = system: Blood; assay: Biodistribution in mouse S180 cells xenografted Kunming mouse blood at 10 to 20 uCi, iv after 15 mins by gamma counting; assay type: ADME, organism-based, CCRF S-180; conditions: in vivo, 0.25 h
[4] = system: Pancreas; assay: Biodistribution in mouse S180 cells xenografted Kunming mouse pancreas at 10 to 20 uCi, iv after 15 mins by gamma counting; assay type: ADME, organism-based, CCRF S-180; conditions: in vivo, 0.25 h
[5] = system: Liver; assay: Biodistribution in mouse S180 cells xenografted Kunming mouse liver at 10 to 20 uCi, iv after 15 mins by gamma counting; assay type: ADME, organism-based, CCRF S-180; conditions: in vivo, 0.25 h
[6] = system: Pancreas; assay: Biodistribution in mouse S180 cells xenografted Kunming mouse pancreas at 10 to 20 uCi, iv after 30 mins by gamma counting; assay type: ADME, organism-based, CCRF S-180; conditions: in vivo, 0.5 h
[7] = Ratio of drug uptake in tumor to brain of mouse S180 cells xenografted Kunming mouse at 10 to 20 uCi, iv after 5 mins by gamma counting; assay type: ADME, organism-based, CCRF S-180; conditions: in vivo
[8] = system: Blood; assay: Biodistribution in mouse S180 cells xenografted Kunming mouse blood at 10 to 20 uCi, iv after 5 mins by gamma counting; assay type: ADME, organism-based, CCRF S-180; conditions: in vivo
[9] = system: Pancreas; assay: Biodistribution in mouse S180 cells xenografted Kunming mouse pancreas at 10 to 20 uCi, iv after 5 mins by gamma counting; assay type: ADME, organism-based, CCRF S-180; conditions: in vivo
[10] = system: Liver; assay: Biodistribution in mouse S180 cells xenografted Kunming mouse liver at 10 to 20 uCi, iv after 120 mins by gamma counting; assay type: ADME, organism-based, CCRF S-180; conditions: in vivo, 2 h
[11] = Ratio of drug uptake in tumor to blood of mouse S180 cells xenografted Kunming mouse at 10 to 20 uCi, iv after 120 mins by gamma counting; assay type: ADME, organism-based, CCRF S-180; conditions: tumour, 2 h
[12] = Ratio of drug uptake in tumor to muscle of mouse S180 cells xenografted Kunming mouse at 10 to 20 uCi, iv after 15 mins by gamma counting; assay type: ADME, organism-based, CCRF S-180; conditions: in vivo, 0.25 h
[13] = system: Kidney; assay: Biodistribution in mouse S180 cells xenografted Kunming mouse kidney at 10 to 20 uCi, iv after 120 mins by gamma counting; assay type: ADME, organism-based, CCRF S-180; conditions: in vivo, 2 h
[14] = Ratio of drug uptake in tumor to blood of mouse S180 cells xenografted Kunming mouse at 10 to 20 uCi, iv after 60 mins by gamma counting; assay type: ADME, organism-based, CCRF S-180; conditions: tumour, 1 h
[15] = system: Brain; assay: Biodistribution in mouse S180 cells xenografted Kunming mouse brain at 10 to 20 uCi, iv after 5 mins by gamma counting; assay type: ADME, organism-based, CCRF S-180; conditions: in vivo
[16] = system: Heart; assay: Biodistribution in mouse S180 cells xenografted Kunming mouse heart at 10 to 20 uCi, iv after 120 mins by gamma counting; assay type: ADME, organism-based, CCRF S-180; conditions: in vivo, 2 h
[17] = Biodistribution in mouse S180 cells xenografted Kunming mouse tumor at 10 to 20 uCi, iv after 5 mins by gamma counting; assay type: ADME, organism-based, Neoplasm, CCRF S-180; conditions: in vivo
[18] = system: Kidney; assay: Biodistribution in mouse S180 cells xenografted Kunming mouse kidney at 10 to 20 uCi, iv after 5 mins by gamma counting; assay type: ADME, organism-based, CCRF S-180; conditions: in vivo
[19] = Ratio of drug uptake in tumor to muscle of mouse S180 cells xenografted Kunming mouse at 10 to 20 uCi, iv after 30 mins by gamma counting; assay type: ADME, organism-based, CCRF S-180; conditions: in vivo, 0.5 h
[20] = Ratio of drug uptake in tumor to brain of mouse S180 cells xenografted Kunming mouse at 10 to 20 uCi, iv after 120 mins by gamma counting; assay type: ADME, organism-based, CCRF S-180; conditions: in vivo, 2 h
[21] = system: Lung; assay: Biodistribution in mouse S180 cells xenografted Kunming mouse lung at 10 to 20 uCi, iv after 120 mins by gamma counting; assay type: ADME, organism-based, CCRF S-180; conditions: in vivo, 2 h
[22] = system: Liver; assay: Biodistribution in mouse S180 cells xenografted Kunming mouse liver at 10 to 20 uCi, iv after 60 mins by gamma counting; assay type: ADME, organism-based, CCRF S-180; conditions: in vivo, 1 h
[23] = system: Liver; assay: Biodistribution in mouse S180 cells xenografted Kunming mouse liver at 10 to 20 uCi, iv after 5 mins by gamma counting; assay type: ADME, organism-based, CCRF S-180; conditions: in vivo
[24] = Ratio of drug uptake in tumor to brain of mouse S180 cells xenografted Kunming mouse at 10 to 20 uCi, iv after 60 mins by gamma counting; assay type: ADME, organism-based, CCRF S-180; conditions: in vivo, 1 h
[25] = Biodistribution in mouse S180 cells xenografted Kunming mouse tumor at 10 to 20 uCi, iv after 30 mins by gamma counting; assay type: ADME, organism-based, Neoplasm, CCRF S-180; conditions: in vivo, 0.5 h
[26] = system: Pancreas; assay: Biodistribution in mouse S180 cells xenografted Kunming mouse pancreas at 10 to 20 uCi, iv after 120 mins by gamma counting; assay type: ADME, organism-based, CCRF S-180; conditions: in vivo, 2 h
[27] = Ratio of drug uptake in tumor to blood of mouse S180 cells xenografted Kunming mouse at 10 to 20 uCi, iv after 5 mins by gamma counting; assay type: ADME, organism-based, CCRF S-180; conditions: tumour
[28] = system: Brain; assay: Biodistribution in mouse S180 cells xenografted Kunming mouse brain at 10 to 20 uCi, iv after 60 mins by gamma counting; assay type: ADME, organism-based, CCRF S-180; conditions: in vivo, 1 h
[29] = system: Kidney; assay: Biodistribution in mouse S180 cells xenografted Kunming mouse kidney at 10 to 20 uCi, iv after 60 mins by gamma counting; assay type: ADME, organism-based, CCRF S-180; conditions: in vivo, 1 h
[30] = system: Muscle tissue; assay: Biodistribution in mouse S180 cells xenografted Kunming mouse muscle at 10 to 20 uCi, iv after 5 mins by gamma counting; assay type: ADME, organism-based, CCRF S-180; conditions: in vivo
[31] = Biodistribution in mouse S180 cells xenografted Kunming mouse tumor at 10 to 20 uCi, iv after 60 mins by gamma counting; assay type: ADME, organism-based, Neoplasm, CCRF S-180; conditions: in vivo, 1 h
[32] = system: Brain; assay: Biodistribution in mouse S180 cells xenografted Kunming mouse brain at 10 to 20 uCi, iv after 30 mins by gamma counting; assay type: ADME, organism-based, CCRF S-180; conditions: in vivo, 0.5 h
[33] = system: Brain; assay: Biodistribution in mouse S180 cells xenografted Kunming mouse brain at 10 to 20 uCi, iv after 15 mins by gamma counting; assay type: ADME, organism-based, CCRF S-180; conditions: in vivo, 0.25 h
[34] = Ratio of drug uptake in tumor to muscle of mouse S180 cells xenografted Kunming mouse at 10 to 20 uCi, iv after 60 mins by gamma counting; assay type: ADME, organism-based, CCRF S-180; conditions: in vivo, 1 h
[35] = system: Blood; assay: Biodistribution in mouse S180 cells xenografted Kunming mouse blood at 10 to 20 uCi, iv after 60 mins by gamma counting; assay type: ADME, organism-based, CCRF S-180; conditions: in vivo, 1 h
[36] = system: Lung; assay: Biodistribution in mouse S180 cells xenografted Kunming mouse lung at 10 to 20 uCi, iv after 15 mins by gamma counting; assay type: ADME, organism-based, CCRF S-180; conditions: in vivo, 0.25 h
[37] = system: Kidney; assay: Biodistribution in mouse S180 cells xenografted Kunming mouse kidney at 10 to 20 uCi, iv after 15 mins by gamma counting; assay type: ADME, organism-based, CCRF S-180; conditions: in vivo, 0.25 h
[38] = system: Blood; assay: Biodistribution in mouse S180 cells xenografted Kunming mouse blood at 10 to 20 uCi, iv after 30 mins by gamma counting; assay type: ADME, organism-based, CCRF S-180; conditions: in vivo, 0.5 h
[39] = system: Lung; assay: Biodistribution in mouse S180 cells xenografted Kunming mouse lung at 10 to 20 uCi, iv after 60 mins by gamma counting; assay type: ADME, organism-based, CCRF S-180; conditions: in vivo, 1 h
[40] = system: Brain; assay: Biodistribution in mouse S180 cells xenografted Kunming mouse brain at 10 to 20 uCi, iv after 120 mins by gamma counting; assay type: ADME, organism-based, CCRF S-180; conditions: in vivo, 2 h
[41] = Ratio of drug uptake in tumor to blood of mouse S180 cells xenografted Kunming mouse at 10 to 20 uCi, iv after 15 mins by gamma counting; assay type: ADME, organism-based, CCRF S-180; conditions: tumour, 0.25 h
[42] = system: Heart; assay: Biodistribution in mouse S180 cells xenografted Kunming mouse heart at 10 to 20 uCi, iv after 5 mins by gamma counting; assay type: ADME, organism-based, CCRF S-180; conditions: in vivo
[43] = Ratio of drug uptake in tumor to muscle of mouse S180 cells xenografted Kunming mouse at 10 to 20 uCi, iv after 5 mins by gamma counting; assay type: ADME, organism-based, CCRF S-180; conditions: in vivo

SMILES: CCCc1nc2c(C)cc(C(=O)O)cc2n1CC[18F]
- Drug uptake [1]: 1.76 % ID/g
- Drug uptake [2]: 8.33 % ID/g
- Drug uptake [3]: 2.25 % ID/g
- Drug uptake [4]: 1 % ID/g
- Drug uptake [5]: 4.02 % ID/g
- Drug uptake [6]: 1.03 % ID/g
- Ratio [7]: 2.21
- Drug uptake [8]: 3.17 % ID/g
- Drug uptake [9]: 2.33 % ID/g
- Drug uptake [10]: 0.38 % ID/g
- Ratio [11]: 1.63
- Ratio [12]: 1.16
- Drug uptake [13]: 1.1 % ID/g
- Ratio [14]: 1.43
- Drug uptake [15]: 1.03 % ID/g
- Drug uptake [16]: 0.26 % ID/g
- Drug uptake [17]: 2.28 % ID/g
- Drug uptake [18]: 35.9 % ID/g
- Ratio [19]: 1.27
- Ratio [20]: 9.8
- Drug uptake [21]: 0.66 % ID/g
- Drug uptake [22]: 1.55 % ID/g
- Drug uptake [23]: 4.13 % ID/g
- Ratio [24]: 7.15
- Drug uptake [25]: 1.49 % ID/g
- Drug uptake [26]: 0.2 % ID/g
- Ratio [27]: 0.72
- Drug uptake [28]: 0.19 % ID/g
- Drug uptake [29]: 4.2 % ID/g
- Drug uptake [30]: 1.78 % ID/g
- Drug uptake [31]: 1.36 % ID/g
- Drug uptake [32]: 0.31 % ID/g
- Drug uptake [33]: 0.44 % ID/g
- Ratio [34]: 2.19
- Drug uptake [35]: 0.95 % ID/g
- Drug uptake [36]: 5.44 % ID/g
- Drug uptake [37]: 13.79 % ID/g
- Drug uptake [38]: 1.36 % ID/g
- Drug uptake [39]: 2.35 % ID/g
- Drug uptake [40]: 0.05 % ID/g
- Ratio [41]: 0.63
- Drug uptake [42]: 4.48 % ID/g
- Ratio [43]: 1.28

Reference: ChEMBL document CHEMBL1156163, “(18)F Labeled benzimidazole derivatives as potential radiotracer for positron emission tomography (PET) tumor imaging” (Bioorg Med Chem, 2010)
